What was measured:
Assay in all cases: relative viability (nuclei count vs DMSO), 5 days (fraction); higher = more cells survive
[1] = system: LC-2-ad
In short: (§1)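 Relative viability is defined as nuclei in treated wells over nuclei in vehicle wells. Duplicate plates were run and medians reported. Lung cancer cell lines in 1536-well plates were dosed by pin tool one day after seeding, with one drug or with a fixed anchor-drug dose plus five library-drug doses (not always all listed) in √10 steps, and nuclei were counted after 5 days.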

[2] = system: HCC-15
In short: as §1

[3] = system: SW 1573
In short: as §1

[4] = system: NCI-H2126
In short: as §1

[5] = system: NCI-H3122
In short: as §1

[6] = system: NCI-H1755
In short: as §1

[7] = system: NCI-H2170
In short: as §1

[8] = system: HOP-62
In short: as §1

[9] = system: LU99A
In short: as §1

[10] = system: NCI-H1734
In short: as §1

[11] = system: NCI-H1437
In short: as §1

[12] = system: NCI-H2023
In short: as §1

[13] = system: NCI-H650
In short: as §1

[14] = system: NCI-H727
In short: as §1

[15] = system: NCI-H1915
In short: as §1

[16] = system: NCI-H358
In short: as §1

[17] = system: HCC-44
In short: as §1

[18] = system: NCI-H1563
In short: as §1

[19] = system: BEN
In short: as §1

[20] = system: EMC-BAC-2
In short: as §1

Cc1csc(=NC2CCCCC2)n1/N=C/c1ccc(O)c(O)c1O [MIM1] + C[C@@H](Oc1cc(-c2cnn(C3CCNCC3)c2)cnc1N)c1c(Cl)ccc(F)c1Cl [Crizotinib] (partner 1 µM)
relative viability ([1]; first compound 0.2 µM): 0.499
relative viability ([1]; first compound 0.6325 µM): 0.385
relative viability ([1]; first compound 2 µM): 0.34
relative viability ([1]; first compound 6.325 µM): 0.277
relative viability ([1]; first compound 20 µM): 0.21
relative viability ([2]; first compound 0.2 µM): 0.801
relative viability ([2]; first compound 0.6325 µM): 0.808
relative viability ([2]; first compound 2 µM): 0.86
relative viability ([2]; first compound 6.325 µM): 0.406
relative viability ([2]; first compound 20 µM): 0.12
relative viability ([3]; first compound 0.2 µM): 0.8
relative viability ([3]; first compound 0.6325 µM): 0.847
relative viability ([3]; first compound 2 µM): 0.875
relative viability ([3]; first compound 6.325 µM): 0.661
relative viability ([3]; first compound 20 µM): 0.451
relative viability ([4]; first compound 0.2 µM): 1.05
relative viability ([4]; first compound 0.6325 µM): 1.05
relative viability ([4]; first compound 2 µM): 1.03
relative viability ([4]; first compound 6.325 µM): 0.963
relative viability ([4]; first compound 20 µM): 0.659
relative viability ([5]; first compound 0.2 µM): 0.272
relative viability ([5]; first compound 0.6325 µM): 0.251
relative viability ([5]; first compound 2 µM): 0.32
relative viability ([5]; first compound 6.325 µM): 0.294
relative viability ([5]; first compound 20 µM): 0.204
relative viability ([6]; first compound 0.2 µM): 0.861
relative viability ([6]; first compound 0.6325 µM): 0.794
relative viability ([6]; first compound 2 µM): 0.803
relative viability ([6]; first compound 6.325 µM): 0.68
relative viability ([6]; first compound 20 µM): 0.179
relative viability ([7]; first compound 0.2 µM): 1.15
relative viability ([7]; first compound 0.6325 µM): 1.07
relative viability ([7]; first compound 2 µM): 1.13
relative viability ([7]; first compound 6.325 µM): 0.652
relative viability ([7]; first compound 20 µM): 0.302
relative viability ([8]; first compound 0.2 µM): 0.927
relative viability ([8]; first compound 0.6325 µM): 0.914
relative viability ([8]; first compound 2 µM): 0.642
relative viability ([8]; first compound 6.325 µM): 0.888
relative viability ([8]; first compound 20 µM): 0.0803
relative viability ([9]; first compound 0.2 µM): 0.56
relative viability ([9]; first compound 0.6325 µM): 0.538
relative viability ([9]; first compound 2 µM): 0.474
relative viability ([9]; first compound 6.325 µM): 0.481
relative viability ([9]; first compound 20 µM): 0.29
relative viability ([10]; first compound 0.2 µM): 0.657
relative viability ([10]; first compound 0.6325 µM): 0.677
relative viability ([10]; first compound 2 µM): 0.596
relative viability ([10]; first compound 6.325 µM): 0.379
relative viability ([10]; first compound 20 µM): 0.242
relative viability ([11]; first compound 0.2 µM): 0.888
relative viability ([11]; first compound 0.6325 µM): 0.839
relative viability ([11]; first compound 2 µM): 0.864
relative viability ([11]; first compound 6.325 µM): 0.559
relative viability ([11]; first compound 20 µM): 0.631
relative viability ([12]; first compound 0.2 µM): 0.551
relative viability ([12]; first compound 0.6325 µM): 0.598
relative viability ([12]; first compound 2 µM): 0.573
relative viability ([12]; first compound 6.325 µM): 0.406
relative viability ([12]; first compound 20 µM): 0.111
relative viability ([13]; first compound 0.2 µM): 0.649
relative viability ([13]; first compound 0.6325 µM): 0.709
relative viability ([13]; first compound 2 µM): 0.662
relative viability ([13]; first compound 6.325 µM): 0.619
relative viability ([13]; first compound 20 µM): 0.279
relative viability ([14]; first compound 0.2 µM): 0.836
relative viability ([14]; first compound 0.6325 µM): 0.81
relative viability ([14]; first compound 2 µM): 0.795
relative viability ([14]; first compound 6.325 µM): 0.534
relative viability ([14]; first compound 20 µM): 0.349
relative viability ([15]; first compound 0.2 µM): 0.887
relative viability ([15]; first compound 0.6325 µM): 0.875
relative viability ([15]; first compound 2 µM): 0.792
relative viability ([15]; first compound 6.325 µM): 0.648
relative viability ([15]; first compound 20 µM): 0.219
relative viability ([16]; first compound 0.2 µM): 0.572
relative viability ([16]; first compound 0.6325 µM): 0.459
relative viability ([16]; first compound 2 µM): 0.545
relative viability ([16]; first compound 6.325 µM): 0.225
relative viability ([16]; first compound 20 µM): 0.295
relative viability ([17]; first compound 0.2 µM): 0.766
relative viability ([17]; first compound 0.6325 µM): 0.74
relative viability ([17]; first compound 2 µM): 0.67
relative viability ([17]; first compound 6.325 µM): 0.391
relative viability ([17]; first compound 20 µM): 0.152
relative viability ([18]; first compound 0.2 µM): 1
relative viability ([18]; first compound 0.6325 µM): 0.891
relative viability ([18]; first compound 2 µM): 0.749
relative viability ([18]; first compound 6.325 µM): 0.784
relative viability ([18]; first compound 20 µM): 0.577
relative viability ([19]; first compound 0.2 µM): 0.893
relative viability ([19]; first compound 0.6325 µM): 0.72
relative viability ([19]; first compound 2 µM): 0.982
relative viability ([19]; first compound 6.325 µM): 0.801
relative viability ([19]; first compound 20 µM): 0.317
relative viability ([20]; first compound 0.2 µM): 0.708
relative viability ([20]; first compound 0.6325 µM): 0.774
relative viability ([20]; first compound 2 µM): 0.784
relative viability ([20]; first compound 6.325 µM): 0.628
relative viability ([20]; first compound 20 µM): 0.196

From the supplement of paper PMC10307832
